Data: ChEMBL document CHEMBL1201862, “PubChem BioAssay data set” (2004)
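Compound exposure: 48 hours, 5 concentrations, 96-well plates. The concentration for 50% growth inhibition is given as GI50.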 Active and inactive are the calls of the source. No stated cut-off is given here; in the data, active = GI50 up to about 1.1 µM and inactive = higher.

Assays:
Assay in all cases: NCI anticancer screen, dose series, 48 h
786-0 = test system: 786-0
A498 = test system: A498
ACHN = test system: ACHN
EKVX = test system: EKVX
HOP-62 = test system: HOP-62
K562 = test system: K562
M14 = test system: M14
MDA-N = test system: MDA-N
MOLT-4 = test system: MOLT-4
NCI-H226 = test system: NCI-H226
NCI-H522 = test system: NCI-H522
SF-268 = test system: SF-268
SK-MEL-5 = test system: SK-MEL-5
SK-OV-3 = test system: SK-OV-3
SN12C = test system: SN12C
SNB-75 = test system: SNB-75
SR = test system: SR
RXF 393 = test system: RXF 393
SW-620 = test system: SW-620

Measured: GI50

O1C2C1C1OC1C1OC1C1OC21 (stereo not given)
inactive: 786-0 > 100 µM | A498 > 100 µM | ACHN > 100 µM | EKVX > 100 µM | HOP-62 > 100 µM | K562 > 100 µM | M14 > 100 µM | MDA-N > 100 µM | MOLT-4 > 100 µM | NCI-H226 > 100 µM | NCI-H522 > 100 µM | SF-268 > 100 µM | SK-MEL-5 > 100 µM | SK-OV-3 > 100 µM | SN12C > 100 µM | SNB-75 46.6 µM | SR > 100 µM

Cc1nc2c(O)cc3c4c(=O)n(C)c(=O)n(C)c4n(Cc4ccccc4)c3c2nc1C
inactive: 786-0 17 µM | A498 33 µM | ACHN 17.9 µM | EKVX 24.3 µM | HOP-62 17.6 µM | K562 34.1 µM | M14 17.6 µM | MDA-N 18.4 µM | MOLT-4 24.5 µM | NCI-H226 21.6 µM | RXF 393 13.2 µM | SF-268 17.6 µM | SK-MEL-5 18.1 µM | SK-OV-3 17.1 µM | SN12C 19.9 µM | SR 24.4 µM | SW-620 19.5 µM

Cc1ccc(-n2cnc(C(=N)C#N)c2N)cc1
inactive: 786-0 > 100 µM | A498 > 100 µM | ACHN > 100 µM | EKVX > 100 µM | HOP-62 > 100 µM | K562 > 100 µM | M14 > 100 µM | MDA-N > 100 µM | MOLT-4 > 100 µM | NCI-H226 > 100 µM | NCI-H522 > 100 µM | SF-268 > 100 µM | SK-MEL-5 > 100 µM | SK-OV-3 > 100 µM | SN12C > 100 µM | SNB-75 > 100 µM | SR > 100 µM | SW-620 > 100 µM

COC(=O)C1(Cc2ccc3c(c2)CCC3)Cc2ccccc2C1O (stereo not given)
inactive: 786-0 16.3 µM | A498 18.2 µM | ACHN 18.3 µM | EKVX 22.8 µM | HOP-62 22.9 µM | K562 12.2 µM | M14 19.6 µM | MDA-N 3.36 µM | MOLT-4 8.22 µM | NCI-H226 17.3 µM | NCI-H522 15.9 µM | SF-268 19.4 µM | SK-MEL-5 16.3 µM | SK-OV-3 19.7 µM | SN12C 15.2 µM | SNB-75 > 10 µM | SR 26.4 µM | SW-620 17.3 µM

CC(=O)NC1C(OCc2ccccc2)OC(CO)C(O)C1OC(C)C(=O)NC(C(=O)NC(CCC(=O)Nc1ccc2c(c1)CN1C(=O)c3ccccc3C1=N2)C(N)=O)C(C)C (stereo not given)
inactive: 786-0 > 100 µM | A498 > 100 µM | ACHN > 100 µM | EKVX > 100 µM | HOP-62 > 100 µM | K562 > 100 µM | M14 > 100 µM | MDA-N > 100 µM | MOLT-4 > 100 µM | RXF 393 > 100 µM | SF-268 > 100 µM | SK-MEL-5 > 100 µM | SK-OV-3 > 100 µM | SN12C > 100 µM | SNB-75 > 100 µM | SR > 100 µM | SW-620 > 100 µM

Cc1ccc(-c2nc(C)c(C(=O)Nc3ccc(Cl)cc3)s2)cc1
inactive: 786-0 15.2 µM | A498 14.3 µM | ACHN 18.4 µM | EKVX 37.8 µM | HOP-62 13.4 µM | K562 > 100 µM | M14 27.7 µM | MDA-N > 100 µM | MOLT-4 > 100 µM | NCI-H226 20.6 µM | NCI-H522 30.5 µM | SF-268 26.5 µM | SK-MEL-5 20.1 µM | SK-OV-3 19 µM | SN12C 31.4 µM | SNB-75 15.1 µM | SR > 100 µM | SW-620 41.7 µM

C[Si](C)(OCCS(=O)(=O)O)OC(=C1S(=O)(=O)OCCOS1(=O)=O)c1cccc2ccccc12
inactive: 786-0 > 100 µM | A498 98.4 µM | ACHN > 100 µM | EKVX > 100 µM | HOP-62 > 100 µM | K562 84.5 µM | M14 > 100 µM | MDA-N > 100 µM | MOLT-4 > 100 µM | NCI-H226 > 100 µM | RXF 393 37.2 µM | SF-268 64 µM | SK-MEL-5 > 100 µM | SN12C > 100 µM | SNB-75 > 100 µM | SR > 100 µM | SW-620 > 100 µM

CCOC(=O)CN1CC(C2=C(O)CN(CC(=O)OCC)C2=O)=CC1=O
inactive: 786-0 > 100 µM | A498 > 100 µM | ACHN > 100 µM | EKVX > 100 µM | HOP-62 > 100 µM | K562 > 100 µM | M14 > 100 µM | MDA-N > 100 µM | MOLT-4 > 100 µM | NCI-H226 > 100 µM | NCI-H522 > 100 µM | SF-268 > 100 µM | SK-MEL-5 > 100 µM | SK-OV-3 > 100 µM | SN12C > 100 µM | SNB-75 > 100 µM | SR > 100 µM | SW-620 > 100 µM
